# From ChEMBL document CHEMBL1125527, “Disodium (R,R)-5-[2-[[2-(3-chlorophenyl)-2-hydroxyethyl]-amino] propyl]-1,3-benzodioxole-2,2-dicarboxylate (CL 316,243). A potent beta-adrenergic agonist virtually specific for beta 3 receptors. A promising antidiabetic and antiobesity agent” (J Med Chem, 1992)
# Key:
# [1] = biological target: Beta-1 adrenergic receptor (Rattus norvegicus, UniProt P18090); experiment: Compound was evaluated for its binding affinity towards Beta-1 adrenergic receptor in rat heart membrane by displacing [125I]- iodocyanopindolol; assay type: cell membranes
# [2] = biological target: Beta-3 adrenergic receptor (Rattus norvegicus, UniProt P26255); experiment: In vitro beta-adrenergic activity against beta-3 adrenergic receptor in rat epididymal fat pads by stimulation of glycerol release from adipocytes.; assay type: functional, tissue-based, Epididymal fat pad
# [3] = biological target: T1, Beta-2 adrenergic receptor (Rattus norvegicus, UniProt P10608); experiment: Compound was evaluated for its binding affinity towards Beta-2 adrenergic receptor in rat soleus membrane by displacing […]; assay type: cell membranes
# [4] = biological target: T1, Beta-2 adrenergic receptor
# Description: In vitro beta-adrenergic activity against beta-1 adrenergic receptor by the inhibition of insulin stimulated [14C]- glucose incorporation into glycogen in isolated rat soleus muscle
# T1 sequence (P10608 whole entry): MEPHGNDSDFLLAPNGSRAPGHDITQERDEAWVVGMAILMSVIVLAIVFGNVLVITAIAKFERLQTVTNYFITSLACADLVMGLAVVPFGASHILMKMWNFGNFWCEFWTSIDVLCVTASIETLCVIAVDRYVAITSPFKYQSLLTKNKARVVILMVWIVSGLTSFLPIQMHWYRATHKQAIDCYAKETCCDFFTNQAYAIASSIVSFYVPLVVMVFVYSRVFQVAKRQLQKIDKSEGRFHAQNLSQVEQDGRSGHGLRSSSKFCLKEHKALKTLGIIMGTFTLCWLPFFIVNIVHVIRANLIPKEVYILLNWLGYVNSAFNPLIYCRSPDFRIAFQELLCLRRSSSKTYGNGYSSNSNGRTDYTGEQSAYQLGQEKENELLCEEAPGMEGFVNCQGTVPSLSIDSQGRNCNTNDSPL
# Beta-1 adrenergic receptor, sequence (P18090 whole entry): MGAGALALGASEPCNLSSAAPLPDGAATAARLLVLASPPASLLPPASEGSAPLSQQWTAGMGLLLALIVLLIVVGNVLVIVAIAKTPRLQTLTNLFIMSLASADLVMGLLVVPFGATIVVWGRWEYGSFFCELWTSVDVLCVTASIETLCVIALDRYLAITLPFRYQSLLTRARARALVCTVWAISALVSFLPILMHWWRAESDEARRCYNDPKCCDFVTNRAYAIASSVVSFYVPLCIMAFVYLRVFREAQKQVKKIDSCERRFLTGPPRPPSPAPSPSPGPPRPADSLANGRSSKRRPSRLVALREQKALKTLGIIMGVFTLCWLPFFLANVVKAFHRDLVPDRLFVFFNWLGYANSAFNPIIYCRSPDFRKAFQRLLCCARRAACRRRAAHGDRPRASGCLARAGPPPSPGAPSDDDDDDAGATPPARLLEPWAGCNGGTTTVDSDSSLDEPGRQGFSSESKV
# Beta-3 adrenergic receptor, sequence (P26255 whole entry): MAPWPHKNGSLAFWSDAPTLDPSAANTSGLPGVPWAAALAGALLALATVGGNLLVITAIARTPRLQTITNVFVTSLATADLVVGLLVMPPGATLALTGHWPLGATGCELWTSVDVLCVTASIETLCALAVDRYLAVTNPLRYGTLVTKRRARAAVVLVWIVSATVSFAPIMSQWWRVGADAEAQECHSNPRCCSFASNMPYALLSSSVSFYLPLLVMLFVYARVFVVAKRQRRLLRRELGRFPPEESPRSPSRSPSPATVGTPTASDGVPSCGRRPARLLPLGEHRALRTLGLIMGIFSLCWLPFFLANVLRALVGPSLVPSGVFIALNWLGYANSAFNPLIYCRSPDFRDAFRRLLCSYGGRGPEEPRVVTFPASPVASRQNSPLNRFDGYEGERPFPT
SMILES,IC50 [1],EC50 [2],IC50 [3],IC50 [4]
COC(=O)COc1ccc(C[C@@H](C)NC[C@H](O)c2cccc(Cl)c2)cc1,59 nM,16 nM,30 nM,500 nM
C[C@H](Cc1ccc(OCC(=O)O)cc1)NC[C@H](O)c1cccc(Cl)c1,,,1300 nM,190 nM
